# Laboratory results as given in US6231894A, “Treatments based on discovery that nitric oxide synthase is a paraquat diaphorase” (Duke University, priority 1999, dated 2001).
# Tests used:
# [1] = Working Example IX: breast cancer patient with adriamycin toxicity; format: in vivo, human
# Description: A person with metastatic breast cancer receives adriamycin in the standard regimen. […] They are begun on the nitric oxide synthase inhibitor L-NAME 0.5 milligrams per kilogram per minute and their systolic blood pressure is then titrated to 100-120 mm Hg. Over the following two weeks, their ejection fraction improves to 50% and the drug is stopped.
# breast cancer = assay: Working Examples XI and XII: breast cancer patient; format: in vivo, human
# Description: A person presents with breast cancer and is treated with standard regimen including adriamycin. […] They are given an infusion of a temperature-sensitive liposome encapsulated nitric oxide synthase, which is released in to the tumor by local heat (40-42° centigrate).
# The adriamycin infusion in Example X after liposome encapsulated nitric oxide synthase treatment is replaced by 2 mg per day of diquat for six days.
# [2] = Working Example X: embolic stroke patient; format: in vivo, human; conditions: 10 mg IV bolus followed by 4.5 mg per kilogram per minute; L-NMMA 30 minutes, L-NAME following day
# Description: A person with middle cerebral arterial embolic stroke presents to the Emergency Room unconscious. […] After 30 minutes the therapy is stopped and they receive L-NAME at the same dose.
# Rabbit aortic rings [3] = assay: Acetylcholine-induced (EDRF) relaxation of aortic rings; conditions: Oryctolagus cuniculus; L-NAME (2 mM), acetylcholine, phenylephrine 1 μM; FIG. 3(a); read-out: inhibition of the relaxation response
# Description: Rabbit aortic rings were treated with increasing concentrations of paraquat or L-NAME (2 mM) prior to initiating a constriction response with 1 μM phenylephrine (initial contraction).
# (§1) New Zealand white male rabbits weighting 3-4 kg were anaesthetized with phenobarbital (30 mg/kg/iv). The descending thoracic aorta was isolated and placed in Krebs-Henseleit buffer (pH 7.4) and stored at 4° C. until used. The vessels were cut into 5 mm rings and submerged in 25 ml double jacketed tissue baths containing Krebs-Henseleit buffer bubbled with 95% oxygen and 5% carbon dioxide at 37° C. Rings were hung on stainless steel stirrups connected to calibrated force transducers. Rings were equilibrated with 2 g resting tension for 1 hour before use and contracted with phenylephrine (1 μM). Rings were incubated with paraquat for 15 minutes before acetylcholine-induced or exogenous relaxations were performed.
# Endothelial-derived relaxing factor (EDRF) responses were initiated by addition of acetylcholine.
# [4] = system: CPA-47 endothelial cell line; assay: LDH release from endothelial cells (cytotoxicity); format: cell-based; conditions: increasing inhibitor concentrations with 2 mM paraquat, 24 hours; FIG. 2(b)
# Description: To test whether the above effect was present in intact cells, endothelial cell cultures, constitutively expressing NOS3 protein as determined by western blot analysis, were treated with 2 mM paraquat in the presence of increasing concentrations of either L-NAME or L-NMMA.
# The endothelial cells were obtained as follows: CPA-47 endothelial cell line (CRL-1733) was purchased from American Type Culture Collection (Manassas, Va.). Endothelial cells were grown in T-75 flasks containing Ham's F-12 K medium supplemented by 1 mM […] and 10% equine serum (Gibco-BRL, Grand Island, N.Y.). Endothelial cells were plated at 3.5×10^4 cells/well in 24-well plates and experiments were performed 48 hours later when cells were near confluence. Medium was changed to minimal essential medium without serum supplement. Endothelial cells were from passages 30-36.
# Cytotoxicity was measured as the percent release of LDH and compared to vehicl-treated cells (basal). The percent release of cytosolic lactate dehydrogenase (LDH) into the culture medium was used to assess the integrity of the cell membrane. LDH activity was measured by following the loss of NADH at 340 nm as described in Day, B. J., et al., J. Pharmacol. Exp. Ther. 275, 1227-1232 (1995). The percent release of LDH into the culture medium 24 hours after the paraquat treatment was used to assess cell injury.
# [5] = Working Example I: patient exposed to paraquat; format: in vivo, human; conditions: L-NAME IV 0.1 mg per kilogram per minute
# Description: A person presents complaining of shortness of breath after working with paraquat. […] An intravenous line is inserted and the patient is started on IV infusion of 0.1 mg per kilogram per minute L-NAME. […] Over the following two days they are weaned off L-NAME.
# [6] = biological target: T1, Recombinant rat neuronal nitric oxide synthase (NOS1) (Rattus norvegicus, UniProt P29476); assay: NADPH oxidation (paraquat diaphorase activity) by recombinant rat neuronal nitric oxide synthase; format: biochemical; conditions: NOS inhibitor 1 mM, FIG. 2(a); for effect on paraquat-stimulated NADPH oxidation: 25 μM paraquat; for effect on basal NADPH oxidation: no paraquat
# T1 construct: purchased Oxis, Portland, Oreg
# T1 sequence (P29476 whole entry): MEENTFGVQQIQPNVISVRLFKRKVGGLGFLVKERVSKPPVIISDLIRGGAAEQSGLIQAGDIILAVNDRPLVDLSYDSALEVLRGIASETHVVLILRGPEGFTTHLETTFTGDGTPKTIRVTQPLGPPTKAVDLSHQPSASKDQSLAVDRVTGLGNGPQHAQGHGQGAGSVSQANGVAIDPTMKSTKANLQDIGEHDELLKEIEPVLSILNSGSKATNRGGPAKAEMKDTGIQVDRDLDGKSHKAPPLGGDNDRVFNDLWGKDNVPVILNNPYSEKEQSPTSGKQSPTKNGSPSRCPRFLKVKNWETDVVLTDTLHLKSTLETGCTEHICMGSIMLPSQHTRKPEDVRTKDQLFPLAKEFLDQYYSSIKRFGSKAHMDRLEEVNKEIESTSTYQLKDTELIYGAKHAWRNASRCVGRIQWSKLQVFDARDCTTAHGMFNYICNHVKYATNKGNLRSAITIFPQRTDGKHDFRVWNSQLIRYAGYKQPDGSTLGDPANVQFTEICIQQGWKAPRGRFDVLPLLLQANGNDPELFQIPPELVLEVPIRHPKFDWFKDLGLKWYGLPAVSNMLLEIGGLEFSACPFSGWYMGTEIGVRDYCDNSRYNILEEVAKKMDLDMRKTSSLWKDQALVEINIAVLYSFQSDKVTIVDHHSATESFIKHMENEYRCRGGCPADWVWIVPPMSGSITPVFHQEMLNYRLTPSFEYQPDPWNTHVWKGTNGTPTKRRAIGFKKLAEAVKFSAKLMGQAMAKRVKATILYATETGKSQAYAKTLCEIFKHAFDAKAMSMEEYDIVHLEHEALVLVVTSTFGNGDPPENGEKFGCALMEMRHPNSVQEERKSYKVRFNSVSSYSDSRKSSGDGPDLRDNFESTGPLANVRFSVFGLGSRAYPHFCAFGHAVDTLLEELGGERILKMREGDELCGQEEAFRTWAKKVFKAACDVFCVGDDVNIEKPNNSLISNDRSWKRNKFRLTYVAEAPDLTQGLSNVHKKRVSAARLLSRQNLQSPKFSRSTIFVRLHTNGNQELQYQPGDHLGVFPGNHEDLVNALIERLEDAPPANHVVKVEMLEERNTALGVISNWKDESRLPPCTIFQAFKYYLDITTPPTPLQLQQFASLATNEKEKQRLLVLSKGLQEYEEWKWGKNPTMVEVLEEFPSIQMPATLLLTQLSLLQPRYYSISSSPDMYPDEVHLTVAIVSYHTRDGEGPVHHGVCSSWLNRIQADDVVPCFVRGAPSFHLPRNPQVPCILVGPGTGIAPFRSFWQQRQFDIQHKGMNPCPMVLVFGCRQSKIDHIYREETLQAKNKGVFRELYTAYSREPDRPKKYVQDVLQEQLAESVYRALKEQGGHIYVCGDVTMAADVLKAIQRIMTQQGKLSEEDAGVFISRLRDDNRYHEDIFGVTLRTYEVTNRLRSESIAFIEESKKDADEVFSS
# Description: Recombinant rat neuronal nitric oxide synthase (NOS1, Oxis, Portland, Oreg.), a constitutive enzyme, was used to assay NADPH oxidation in the presence of increasing concentrations of paraquat. Reactions (0.2 ml) were performed in bis-tris propane buffer (40 mM) containing L-arginine (1 mM), CaCl2 (1.2 mM), EDTA (0.9 mM), NADPH (0.35 mM), dithiothreitol (3 mM), tetrahydrobiopterin (4 μM), catalase (1 μg/ml) and calmodulin (200 U/ml) at pH 7.4. Reactions were initiated by the addition of 1.5 U of NOS1, and the oxidation of NADPH was continuously monitored at 340 nm for 1 minute at 37° C. in a plate reader. The rate of NOS-mediated NADPH oxidation was determined using an extinction coefficient of 6.22 mM^-1 cm^-1 after subtracting the baseline of NADPH oxidation.
# The experiment of Background Example 1 for NADPH oxidation was carried out in the presence and absence of 25 μM paraquat, without any NOS inhibitor (control), in the presence of L-NAME (1 mM) or in the presence of 1 mM L-NMMA. […] Only L-NAME shut down the NADPH oxidase activity.
# [7] = Working Example III: stroke patient; format: in vivo, human
# Description: A person presents with confusion and weakness in the left arm. […] The L-NAME is stopped and the patient is given an NO derivatized L-NAME compound at 0.1 milligram per kilogram per minute IV which lowers the blood pressure to 170/100.
# [8] = system: RAW-264.7 monocyte macrophage cells; assay: LDH release from macrophages (cytotoxicity); format: cell-based; conditions: conclusion of Background Example 4
# Description: The RAW-264.7 monocyte macrophage cells line (TIB-71) was purchased from the American Type Culture Collection (Manassas, Va.). The cells were grown in T-75 flasks containing DMEM (Gibco-BRL, Grand Island, N.Y.) supplemented with 1 mM pyruvate, 4.5 g/L glucose and […] fetal bovine serum Macrophages were plated at 2.0×10^4 cells/well in 24-well plates and experiments were performed when cells were near confluence. Macrophages were immunostimulated with 50 ng/ml lipopolysaccharide (LPS) from E. coli serotype 0111:B4 (Signia, St. Louis, Mo.) and 50 U/ml recombinant mouse interferon gamma (INF-γ, R&D Systems, Minneapolis,Minn.). Macrophages were used between passages 2-8. Cell cultures were kept in a 37° C. incubator with air and 5% carbon dioxide.
# NOS2 was induced in RAW cells using a mixture of interferon-γ and lipopolysaccharide (LPS) referred to as "cytomix." Unstimulated (basal) and activated (cytomix) macrophages were treated with 0.1 mM paraquat or not treated with paraquat and cytotoxicity and NO production were assessed at 24 hours.
# Cell injury was assessed by measuring LDH release.
# To further exclude the role of peroxynitrite, macrophages were treated with increasing concentrations of the NO-donor, DETA NONOate in the presence of 0.1 mM paraquat. Macrophage cytotoxicity and NO release were assessed 24 hours after treatments. Cell injury was assessed by measuring LDH release.
# Rabbit aortic rings [9] = assay: Exogenous NO-induced relaxation of aortic rings; conditions: 2 mM paraquat, phenylephrine 1 μM; FIG. 3(b)
# Description: as §1
# In another case, rabbit aortic rings were constricted with 1 μM phenylephrine (initial contraction) and relaxed with increasing concentration of NO in the presence or absence of 2 mM paraquat. The results are shown in FIG. 3(b) where relaxations are expressed as a percent of the initial phenylephrine-induced contraction.
# [10] = Working Example IV: patient with E. Coli bacteremia; format: in vivo, human
# Description: A person with E. Coli bacteremia presents with a fever of 101° F. and a blood pressure of 70/50. […] The drug is stopped and they are begun on NO-derivatized L-NAME at 0.1 mg/kg/minute. […] Blood pressure rises to 100/80.
# [11] = Working Example XIV: congestive heart failure and COPD patient; format: in vivo, human; conditions: 10 milligram per kilogram IV bolus and IV drip 0.5 milligrams per kilograms per minute
# Description: A patient with congestive heart failure and COPD presents acutely short of breath. They are intubated for respiratory failure. […] Their FEV1 is 0.8. The patient has a protracted hospital course and attempts to wean them from the ventilator are unsuccessful. They are then started on 10 milligram per kilogram IV bolus of L-NMMA and an intravenous drip at 0.5 milligrams per kilograms per minute.
# solid tumor = assay: Working Example VII: solid tumor patient; format: in vivo, human; conditions: treatment for seven days
# Description: A person is given the anti-tumor agent 5,6 dimethylxanthemone-4-acetic acid (5,6 MEXAA) to treat a solid tumor identified by biopsy on the left lower extremity, and lung. […] At this time, the patient is treated with intravenous infusion of paraquat (4 milligram per kilogram) for seven cycles.
# [12] = Therapeutic use of NO-derivatized L-NAME variant; format: in vivo; conditions: nitrite ester variant
# Description: The invention is explained and illustrated by the following background examples and working examples. In the examples the NO-derivatized LNAME is the compound of formula (I) where R^3 is CH3 and R^1 is --(CH2)2 --ONO2. This compound is made by starting with N^ω -nitro-α-(2-hydroxyethyl)-L-arginine made as described above, forming the tert-butyloxycarbonyl derivative, dissolving in methanol, adding […], using non-aqueous trifluoroacetic acid to remove the protecting group and converting to the nitrate ester.
# [13] = 0.1 milligram per kilogram per minute IV
# [14] = 0.1 mg/kg/minute, after L-NMMA stopped
compound,measurement,setting,value
COc1cccc2c1C(=O)c1c(O)c3c(c(O)c1C2=O)C[C@@](O)(C(=O)CO)C[C@@H]3O[C@H]1C[C@H](N)[C@H](O)[C@H](C)O1 [adriamycin],adverse effect of adriamycin,[1]; standard regimen,light sensitivity and shortness of breath
same,ejection fraction after adriamycin,"[1]; standard regimen, echocardiogram",35%
same,tumor regression,"breast cancer; adriamycin after temperature-sensitive liposome encapsulated nitric oxide synthase released by local heat, six cycles",the tumor is shown to regress after six cycles of therapy
same,tumor response to adriamycin alone,breast cancer; standard regimen including adriamycin,The tumor fails to respond
"COC(=O)[C@@H](N)CCCNC(=N)N[N+](=O)[O-] [L-NAME, L-nitroarginine, methyl ester]",ejection fraction on L-NAME,"[1]; 0.5 milligrams per kilogram per minute, two weeks, from 35%",50%
same,improvement / consciousness,[2],regains consciousness
same,inhibition at 2000 µM,Rabbit aortic rings [3],> 90%
same,protection from paraquat toxicity (LDH release),[4],dose-dependent protection from paraquat toxicity
same,symptoms,[5]; over the day,symptoms improve over the day
same,arteriolar PO2,"[5]; increases from 60, over the day",85 mm Hg
same,effect on paraquat-stimulated NADPH oxidation,[6],completely inhibited paraquat-stimulated NADPH oxidation
same,effect on basal NADPH oxidation,[6],little effect on basal NADPH oxidation
same,symptoms of stroke,[7]; [13],symptoms do not improve
same,blood pressure during L-NAME,[7]; L-NAME 0.1 milligram per kilogram per minute IV,220/110
c1cc[n+]2c(c1)-c1cccc[n+]1CC2 [diquat],tumor regression,breast cancer; diquat 2 mg per day for six days after liposome encapsulated nitric oxide synthase,The tumor is shown to regress
nitric oxide [NO],"cell killing / amelioration of toxicity, conclusion",[8],toxicity can be ameliorated by putting NO back into the system
same,effect on exogenously added NO-induced relaxation,Rabbit aortic rings [9],NO still works in a system where NO is inhibited and superoxide is generated
"CNC(=N)NCCC[C@H](N)C(=O)O [L-NMMA, L-N-methylarginine]",pulmonary hypertension and cardiac output,[10]; L-NMMA infusion 10 mg/kg/hr.,profound pulmonary hypertension and a fall in cardiac output
same,improvement / consciousness,[2],without improvement
same,protection from paraquat toxicity (LDH release),[4],"not L-NMMA, produced a dose-dependent protection from paraquat toxicity"
same,effect on paraquat-stimulated NADPH oxidation,[6],partially blocked paraquat-induced NADPH oxidation
same,effect on basal NADPH oxidation,[6],small increase in basal NADPH oxidation
same,weaning from the ventilator,[11],weaned from the ventilator over the following day
"Cc1ccc2c(=O)c3cccc(CC(=O)O)c3oc2c1C [5,6 MEXAA, 5,6 dimethylxanthemone-4-acetic acid]",nitric oxide synthase expression in the tumor on biopsy,solid tumor,increase in nitric oxide synthase expression in the tumor
COC(=O)[C@@](N)(CCCNC(=N)N[N+](=O)[O-])CCO[N+](=O)[O-] [NO-derivatized L-NAME],cardiac output,[10]; [14],Cardiac output normalizes
same,pulmonary pressure,[10]; [14],Pulmonary pressure normalizes
same,blood pressure,"[10]; 0.1 mg/kg/minute, 70/50 at presentation",100/80
same,symptoms of stroke,[7]; [13],symptoms of confusion abate and motion returns to the arm
same,blood pressure after switch to NO derivatized L-NAME,"[7]; 0.1 milligram per kilogram per minute IV, from 220/110",170/100
COC(=O)[C@@](N)(CCCNC(=N)N[N+](=O)[O-])CCON=O,therapeutic results,[12],Therapeutic results are also obtained
